Legend:
Assay type in all cases: biochemical
hepsin = biological target: T1, hepsin (Homo sapiens, UniProt P05981); assay: HyCoSuL P4-P2 substrate specificity screening, hepsin; details: for P2 Position Substrate Activity for hepsin (percent substrate cleavage/proteolysis): residue fixed at P2 position; for P3 Position Substrate Activity for hepsin (percent substrate cleavage/proteolysis): residue fixed at P3 position; for P3 Position Various Amino Acids Substrate Activity, hepsin (percent substrate cleavage/proteolysis): residue fixed at P3 position of substrate library; for P4 Position Various Amino Acids Substrate Activity, hepsin (percent substrate proteolysis/cleavage): residue fixed at P4 position of substrate library
T1 construct: purchased R&D Systems 4776-SE-010

matriptase = biological target: T2, matriptase (Homo sapiens, UniProt Q9Y5Y6); assay: HyCoSuL P4-P2 substrate specificity screening, matriptase; details: for P2 Position Substrate Activity for matriptase (percent substrate cleavage/proteolysis): residue fixed at P2 position; for P3 Position Various Amino Acids Substrate Activity, matriptase (percent substrate cleavage/proteolysis): residue fixed at P3 position of substrate library; for P3 Position Substrate Activity for matriptase (percent substrate cleavage/proteolysis): residue fixed at P3 position; for P4 Position Various Amino Acids Substrate Activity, matriptase (percent substrate proteolysis/cleavage): residue fixed at P4 position of substrate library
T2 sequence (Q9Y5Y6 1-855): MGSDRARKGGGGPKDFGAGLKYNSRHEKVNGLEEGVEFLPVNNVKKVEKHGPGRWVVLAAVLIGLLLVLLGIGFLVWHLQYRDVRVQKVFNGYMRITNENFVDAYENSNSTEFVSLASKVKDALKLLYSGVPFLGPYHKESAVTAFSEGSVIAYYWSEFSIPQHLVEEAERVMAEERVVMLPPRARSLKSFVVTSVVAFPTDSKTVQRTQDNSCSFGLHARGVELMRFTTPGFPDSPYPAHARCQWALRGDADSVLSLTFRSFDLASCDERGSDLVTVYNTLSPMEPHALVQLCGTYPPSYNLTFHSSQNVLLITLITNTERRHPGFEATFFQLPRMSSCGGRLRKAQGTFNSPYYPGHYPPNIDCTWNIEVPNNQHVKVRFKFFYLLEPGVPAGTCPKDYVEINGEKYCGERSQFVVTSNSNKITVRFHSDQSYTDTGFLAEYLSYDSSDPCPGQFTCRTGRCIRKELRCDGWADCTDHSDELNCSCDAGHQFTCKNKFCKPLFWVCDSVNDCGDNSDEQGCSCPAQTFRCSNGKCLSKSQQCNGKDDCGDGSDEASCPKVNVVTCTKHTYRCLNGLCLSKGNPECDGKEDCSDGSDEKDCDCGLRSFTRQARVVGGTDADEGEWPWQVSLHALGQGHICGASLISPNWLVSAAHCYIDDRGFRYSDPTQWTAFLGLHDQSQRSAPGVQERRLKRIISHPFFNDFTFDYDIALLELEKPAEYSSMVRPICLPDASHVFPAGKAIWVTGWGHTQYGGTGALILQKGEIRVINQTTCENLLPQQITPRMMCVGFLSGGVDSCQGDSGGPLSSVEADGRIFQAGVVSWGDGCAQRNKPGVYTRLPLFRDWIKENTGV

HGFA = biological target: T3, HGFA (Homo sapiens, UniProt Q04756); assay: HyCoSuL P4-P2 substrate specificity screening, HGFA; details: for P2 Position Substrate Activity for HGFA (percent substrate cleavage/proteolysis): residue fixed at P2 position; for P3 Position Substrate Activity for HGFA (percent substrate cleavage/proteolysis): residue fixed at P3 position; for P3 Position Various Amino Acids Substrate Activity, HGFA (percent substrate cleavage/proteolysis): residue fixed at P3 position of substrate library; for P4 Position Various Amino Acids Substrate Activity, HGFA (percent substrate proteolysis/cleavage): residue fixed at P4 position of substrate library
T3 sequence (Q04756 373-655): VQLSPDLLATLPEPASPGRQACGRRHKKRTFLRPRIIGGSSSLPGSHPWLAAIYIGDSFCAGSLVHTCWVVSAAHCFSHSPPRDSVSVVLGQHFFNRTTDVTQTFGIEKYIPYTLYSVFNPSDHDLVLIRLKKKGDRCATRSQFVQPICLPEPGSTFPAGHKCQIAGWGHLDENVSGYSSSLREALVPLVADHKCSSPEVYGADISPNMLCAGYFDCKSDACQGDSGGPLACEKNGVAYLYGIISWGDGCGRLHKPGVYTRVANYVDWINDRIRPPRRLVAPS

TMPRSS2 = TMPRSS2 (Homo sapiens, UniProt O15393); assay: PS-SCL / HyCoSuL substrate specificity screening, TMPRSS2; details: for P2 Position Substrate Activity for TMPRSS2 (percent substrate cleavage/proteolysis): residue fixed at P2 position of substrate library; for P3 Position Substrate Activity for TMPRSS2 (percent substrate cleavage/proteolysis) / P3 Position Various Amino Acids Substrate Activity, TMPRSS2 (percent substrate cleavage/proteolysis): residue fixed at P3 position of substrate library
[1] = P1-Arg HyCoSuL, 100 μM, best recognized amino acid set to 100%
[2] = residue fixed at P4 position, P1-Arg HyCoSuL, 100 μM, best recognized amino acid set to 100%
[3] = best recognized amino acid set to 100%
[4] = residue fixed at P4 position of substrate library

T1 sequence (P05981 163-417 limits assumed): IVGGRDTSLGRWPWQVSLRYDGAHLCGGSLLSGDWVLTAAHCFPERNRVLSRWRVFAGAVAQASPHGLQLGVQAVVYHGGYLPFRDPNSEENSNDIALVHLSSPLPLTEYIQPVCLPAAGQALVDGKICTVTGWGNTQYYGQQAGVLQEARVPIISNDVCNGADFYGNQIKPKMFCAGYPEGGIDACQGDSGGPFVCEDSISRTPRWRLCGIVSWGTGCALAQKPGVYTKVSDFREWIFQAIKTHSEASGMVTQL
T1 sequence (P05981 1-162 partner limits assumed): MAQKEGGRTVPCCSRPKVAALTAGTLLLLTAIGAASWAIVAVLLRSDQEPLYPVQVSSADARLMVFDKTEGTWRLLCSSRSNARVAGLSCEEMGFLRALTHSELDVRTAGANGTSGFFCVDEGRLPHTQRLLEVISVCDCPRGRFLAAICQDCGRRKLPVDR
Sequence of TMPRSS2 (O15393 whole entry): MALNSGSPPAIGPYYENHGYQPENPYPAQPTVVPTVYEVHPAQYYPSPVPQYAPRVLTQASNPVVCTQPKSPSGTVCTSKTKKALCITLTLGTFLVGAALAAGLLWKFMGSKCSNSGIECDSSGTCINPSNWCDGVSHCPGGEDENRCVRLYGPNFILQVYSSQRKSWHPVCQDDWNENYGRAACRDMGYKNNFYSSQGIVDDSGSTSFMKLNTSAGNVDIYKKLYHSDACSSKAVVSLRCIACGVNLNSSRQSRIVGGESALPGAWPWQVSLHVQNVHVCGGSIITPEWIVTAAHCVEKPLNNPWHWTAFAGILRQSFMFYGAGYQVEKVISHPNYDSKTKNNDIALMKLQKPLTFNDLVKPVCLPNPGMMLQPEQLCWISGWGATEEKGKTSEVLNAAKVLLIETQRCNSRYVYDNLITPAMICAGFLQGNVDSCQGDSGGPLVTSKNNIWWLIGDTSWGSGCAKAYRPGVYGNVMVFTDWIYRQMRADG

Substance	P2 Position Substrate Activity for hepsin (percent substrate cleavage/proteolysis) (hepsin; [1])	P3 Position Substrate Activity for hepsin (percent substrate cleavage/proteolysis) (hepsin; [1])	P4 Position Substrate Activity for hepsin (percent substrate cleavage/proteolysis) (hepsin; [2])	P2 Position Substrate Activity for matriptase (percent substrate cleavage/proteolysis) (matriptase; [1])	P3 Position Various Amino Acids Substrate Activity, matriptase (percent substrate cleavage/proteolysis) (matriptase)	P3 Position Substrate Activity for matriptase (percent substrate cleavage/proteolysis) (matriptase; [1])	P4 Position Various Amino Acids Substrate Activity, matriptase (percent substrate proteolysis/cleavage) (matriptase)	P4 Position Substrate Activity for matriptase (percent substrate cleavage/proteolysis) (matriptase; [2])	P2 Position Substrate Activity for HGFA (percent substrate cleavage/proteolysis) (HGFA; [1])	P3 Position Substrate Activity for HGFA (percent substrate cleavage/proteolysis) (HGFA; [1])	P4 Position Substrate Activity for HGFA (percent substrate cleavage/proteolysis) (HGFA; [2])	P2 Position Substrate Activity for TMPRSS2 (percent substrate cleavage/proteolysis) (TMPRSS2; [3])	P3 Position Substrate Activity for TMPRSS2 (percent substrate cleavage/proteolysis) (TMPRSS2; [3])	P4 Position Substrate Activity for TMPRSS2 (percent substrate cleavage/proteolysis) (TMPRSS2; residue fixed at P4 position of substrate library, best recognized amino acid set to 100%)	P3 Position Various Amino Acids Substrate Activity, hepsin (percent substrate cleavage/proteolysis) (hepsin)	P4 Position Various Amino Acids Substrate Activity, hepsin (percent substrate proteolysis/cleavage) (hepsin)	P3 Position Various Amino Acids Substrate Activity, HGFA (percent substrate cleavage/proteolysis) (HGFA)	P4 Position Various Amino Acids Substrate Activity, HGFA (percent substrate proteolysis/cleavage) (HGFA)	P3 Position Various Amino Acids Substrate Activity, TMPRSS2 (percent substrate cleavage/proteolysis) (TMPRSS2)	P4 Position Various Amino Acids Substrate Activity, TMPRSS2 (percent substrate proteolysis/cleavage) (TMPRSS2; [4])
D-Arg	0.00%	66.08%	44.37%	0%	8%	7.82%	18%	17.66%	0.00%	29.10%	23.20%	0.00%	0.00%	24.43%	–	–	–	–	–	–
D-Asn	0.00%	–	–	0%	2%	–	7%	–	0.00%	–	–	0.00%	–	–	38.75%	18.48%	15.16%	7.38%	0.00%	19.65%
D-Asp	0.00%	–	–	0%	0%	–	1%	–	0.00%	–	–	0.00%	–	–	17.18%	1.98%	5.37%	2.25%	20.28%	18.22%
D-Gln	0.00%	97.80%	–	0%	7%	7.43%	7%	–	0.00%	13.84%	–	0.00%	10.18%	–	–	20.13%	–	8.03%	–	20.76%
D-Glu	0.00%	–	–	0%	2%	–	1%	–	0.00%	–	–	0.00%	–	–	34.55%	2.98%	3.61%	2.62%	12.50%	23.68%
D-His	0.00%	–	–	0%	3%	–	7%	–	0.00%	–	–	0.00%	–	–	40.09%	19.33%	11.09%	7.79%	6.35%	24.51%
D-Leu	0.00%	–	–	0%	4%	–	9%	–	0.00%	–	–	0.00%	–	–	20.14%	24.76%	7.08%	10.56%	0.00%	28.04%

From US20250171495A1, “MUTLI-TARGETED SERINE PROTEASE INHIBITORS FOR TREATMENT OF CANCER AND VIRAL INFECTION” (Washington University, priority 2023, published 2025)
